Results as given in ChEMBL document CHEMBL4145553, “Design, synthesis, and biological evaluation of novel amide and hydrazide based thioether analogs targeting Histone deacteylase (HDAC) enzymes” (Eur J Med Chem, 2018).

How the values were obtained:
HL-60(TB) = test: Growth inhibition of human HL-60(TB) cells at 10 uM incubated for 48 hrs by sulforhodamine B assay relative to control; format: functional; conditions: HL-60, 48 h, values are per cent of control
HOP-92 = test: Growth inhibition of human HOP92 cells at 10 uM incubated for 48 hrs by sulforhodamine B assay relative to control; format: functional; conditions: HOP-92, 48 h, values are per cent of control
NCI-H23 = test: Growth inhibition of human NCI-H23 cells at 10 uM incubated for 48 hrs by sulforhodamine B assay relative to control; format: functional; conditions: NCI-H23, 48 h, values are per cent of control
NCI-H322M = test: Growth inhibition of human NCI-H322M cells at 10 uM incubated for 48 hrs by sulforhodamine B assay relative to control; format: functional; conditions: values are per cent of control
NCI-H460 = test: Growth inhibition of human NCI-H460 cells at 10 uM incubated for 48 hrs by sulforhodamine B assay relative to control; format: functional; conditions: NCI-H460, 48 h, values are per cent of control
TK-10 = test: Growth inhibition of human TK10 cells at 10 uM incubated for 48 hrs by sulforhodamine B assay relative to control; format: functional; conditions: TK-10, 48 h, values are per cent of control
SN12C = test: Growth inhibition of human SN12C cells at 10 uM incubated for 48 hrs by sulforhodamine B assay relative to control; format: functional; conditions: values are per cent of control
CAKI-1 = test: Growth inhibition of human Caki1 cells at 10 uM incubated for 48 hrs by sulforhodamine B assay relative to control; format: functional; conditions: CAKI-1, 48 h, values are per cent of control
ACHN = test: Growth inhibition of human ACHN cells at 10 uM incubated for 48 hrs by sulforhodamine B assay relative to control; format: functional; conditions: values are per cent of control
A498 = test: Growth inhibition of human A498 cells at 10 uM incubated for 48 hrs by sulforhodamine B assay relative to control; format: functional; conditions: A498, 48 h, values are per cent of control
UO-31 = test: Growth inhibition of human UO31 cells at 10 uM incubated for 48 hrs by sulforhodamine B assay relative to control; format: functional; conditions: UO-31, 48 h, values are per cent of control
PC-3 = test: Growth inhibition of human PC3 cells at 10 uM incubated for 48 hrs by sulforhodamine B assay relative to control; format: functional; conditions: PC-3, 48 h, values are per cent of control
MDA-MB-231 = test: Growth inhibition of human MDA-MB-231 cells at 10 uM incubated for 48 hrs by sulforhodamine B assay relative to control; format: functional; conditions: MDA-MB-231, 48 h, values are per cent of control
BT-549 = test: Growth inhibition of human BT549 cells at 10 uM incubated for 48 hrs by sulforhodamine B assay relative to control; format: functional; conditions: BT-549, 48 h, values are per cent of control
SR = test: Growth of human SR cells at 10 uM incubated for 48 hrs by sulforhodamine B assay relative to control
KM12 = test: Growth of human KM12 cells at 10 uM incubated for 48 hrs by sulforhodamine B assay relative to control; conditions: KM12, 48 h
K562 = test: Growth of human K562 cells at 10 uM incubated for 48 hrs by sulforhodamine B assay relative to control; conditions: K562, 48 h
EKVX = test: Growth of human EKVX cells at 10 uM incubated for 48 hrs by sulforhodamine B assay relative to control
SNB-19 = test: Growth of human SNB19 cells at 10 uM incubated for 48 hrs by sulforhodamine B assay relative to control; conditions: SNB-19, 48 h
SF-539 = test: Growth of human SF539 cells at 10 uM incubated for 48 hrs by sulforhodamine B assay relative to control; conditions: SF-539, 48 h
SF-268 = test: Growth of human SF268 cells at 10 uM incubated for 48 hrs by sulforhodamine B assay relative to control; conditions: SF-268, 48 h
HT-29 = test: Growth of human HT-29 cells at 10 uM incubated for 48 hrs by sulforhodamine B assay relative to control; conditions: HT-29, 48 h
HCT-15 = test: Growth of human HCT15 cells at 10 uM incubated for 48 hrs by sulforhodamine B assay relative to control; conditions: HCT-15, 48 h
MOLT-4 = test: Growth of human MOLT4 cells at 10 uM incubated for 48 hrs by sulforhodamine B assay relative to control; conditions: MOLT-4, 48 h
HOP-62 = test: Growth of human HOP62 cells at 10 uM incubated for 48 hrs by sulforhodamine B assay relative to control; conditions: HOP-62, 48 h
OVCAR-5 = test: Growth of human OVCAR5 cells at 10 uM incubated for 48 hrs by sulforhodamine B assay relative to control; conditions: OVCAR-5, 48 h
OVCAR-4 = test: Growth of human OVCAR4 cells at 10 uM incubated for 48 hrs by sulforhodamine B assay relative to control; conditions: OVCAR-4, 48 h
IGROV-1 = test: Growth of human IGROV1 cells at 10 uM incubated for 48 hrs by sulforhodamine B assay relative to control; conditions: IGROV-1, 48 h
HCT-116 = test: Growth of human HCT116 cells at 10 uM incubated for 48 hrs by sulforhodamine B assay relative to control; conditions: HCT-116, 48 h
NCI-H522 = test: Growth of human NCI-H522 cells at 10 uM incubated for 48 hrs by sulforhodamine B assay relative to control; conditions: NCI-H522, 48 h
RPMI-8226 = test: Growth of human RPMI8226 cells at 10 uM incubated for 48 hrs by sulforhodamine B assay relative to control; conditions: RPMI-8226, 48 h
SK-MEL-28 = test: Growth of human SK-MEL-28 cells at 10 uM incubated for 48 hrs by sulforhodamine B assay relative to control; conditions: SK-MEL-28, 48 h
MDA-MB-435 = test: Growth of human MDA-MB-435 cells at 10 uM incubated for 48 hrs by sulforhodamine B assay relative to control; conditions: MDA-MB-435, 48 h

CC(C)(C)S/C(Nc1ccccc1)=C(\C#N)C(=O)Nc1ccccc1
growth, % of control at 10 µM (HL-60(TB)): 82.3%
growth, % of control at 10 µM (HOP-92): 91.4%
growth, % of control at 10 µM (NCI-H23): 99.8%
growth, % of control at 10 µM (NCI-H322M): 101%
growth, % of control at 10 µM (NCI-H460): 103%
growth, % of control at 10 µM (TK-10): 90.9%
growth, % of control at 10 µM (SN12C): 98.4%
growth, % of control at 10 µM (CAKI-1): 95%
growth, % of control at 10 µM (ACHN): 103%
growth, % of control at 10 µM (A498): 92.9%
growth, % of control at 10 µM (UO-31): 86.1%
growth, % of control at 10 µM (PC-3): 95.2%
growth, % of control at 10 µM (MDA-MB-231): 98.5%
growth, % of control at 10 µM (BT-549): 99.4%
growth, % of control at 10 µM (SR): 82.3%
growth, % of control at 10 µM (KM12): 114%
growth, % of control at 10 µM (K562): 95.9%
growth, % of control at 10 µM (EKVX): 101%
growth, % of control at 10 µM (SNB-19): 92.5%
growth, % of control at 10 µM (SF-539): 100%
growth, % of control at 10 µM (SF-268): 86.3%
growth, % of control at 10 µM (HT-29): 94.6%
growth, % of control at 10 µM (HCT-15): 101%
growth, % of control at 10 µM (MOLT-4): 69.7%
growth, % of control at 10 µM (HOP-62): 90.6%
growth, % of control at 10 µM (OVCAR-5): 100%
growth, % of control at 10 µM (OVCAR-4): 100%
growth, % of control at 10 µM (IGROV-1): 108%
growth, % of control at 10 µM (HCT-116): 95.2%
growth, % of control at 10 µM (NCI-H522): 80.3%
growth, % of control at 10 µM (RPMI-8226): 95.3%
growth, % of control at 10 µM (SK-MEL-28): 105%
growth, % of control at 10 µM (MDA-MB-435): 104%

CCS/C(Nc1ccccc1)=C(\C#N)C(=O)N/N=C\c1ccco1
growth, % of control at 10 µM (HL-60(TB)): 84.2%
growth, % of control at 10 µM (HOP-92): 94.7%
growth, % of control at 10 µM (NCI-H23): 96.5%
growth, % of control at 10 µM (NCI-H322M): 101%
growth, % of control at 10 µM (NCI-H460): 110%
growth, % of control at 10 µM (TK-10): 103%
growth, % of control at 10 µM (SN12C): 97.7%
growth, % of control at 10 µM (CAKI-1): 95.9%
growth, % of control at 10 µM (ACHN): 105%
growth, % of control at 10 µM (A498): 77.3%
growth, % of control at 10 µM (UO-31): 86.8%
growth, % of control at 10 µM (PC-3): 99.4%
growth, % of control at 10 µM (MDA-MB-231): 96.2%
growth, % of control at 10 µM (BT-549): 109%
growth, % of control at 10 µM (SR): 85.1%
growth, % of control at 10 µM (KM12): 104%
growth, % of control at 10 µM (K562): 97.8%
growth, % of control at 10 µM (EKVX): 101%
growth, % of control at 10 µM (SNB-19): 101%
growth, % of control at 10 µM (SF-539): 98.7%
growth, % of control at 10 µM (SF-268): 98%
growth, % of control at 10 µM (HT-29): 94.7%
growth, % of control at 10 µM (HCT-15): 106%
growth, % of control at 10 µM (MOLT-4): 76.3%
growth, % of control at 10 µM (HOP-62): 97.4%
growth, % of control at 10 µM (OVCAR-5): 106%
growth, % of control at 10 µM (OVCAR-4): 106%
growth, % of control at 10 µM (IGROV-1): 105%
growth, % of control at 10 µM (HCT-116): 95.5%
growth, % of control at 10 µM (NCI-H522): 75.7%
growth, % of control at 10 µM (RPMI-8226): 103%
growth, % of control at 10 µM (SK-MEL-28): 109%
growth, % of control at 10 µM (MDA-MB-435): 105%
